Test results taken from patent US20220073554A1, “LINCOSAMIDE ANTIBIOTICS AND USES THEREOF” (President and Fellows of Harvard College, priority 2017, published 2022).
Values after ≈ are worked out from the molar mass of the structure shown. Read-outs that look alike come from different tables or passages of the source.

Experiments:
Type in all cases: cell-based
[1] = test system: S. aureus MP-549 msr(a) USA 300; assay: MIC against S. aureus MP-549 msr(a) USA 300; conditions: Staphylococcus aureus, USA300, S. aureus MP-549 msr(a) USA 300
S. aureus MMX 3035 cErmA = assay: MIC against S. aureus MMX 3035 cErmA; conditions: Staphylococcus aureus, MMX3035CERMA
S. pneumoniae ATCC 49619 = assay: MIC against S. pneumoniae ATCC 49619; conditions: Streptococcus pneumoniae, ATCC49619; S. pneumoniae ATCC 49619; read-out: MIC
[2] = test system: S. pneumoniae MMX 3028 cErmB; assay: MIC against S. pneumoniae MMX 3028 cErmB; conditions: Streptococcus pneumoniae, MMX3028CERMB
[3] = test system: S. pneumoniae MMX 3031 cMefA; assay: MIC against S. pneumoniae MMX 3031 cMefA; conditions: Streptococcus pneumoniae, MMX3031CMEFA
S. pyogenes ATCC 19615 = assay: MIC against S. pyogenes ATCC 19615; conditions: Streptococcus pyogenes, ATCC19615
E. faecalis ATCC 29212 = assay: MIC against E. faecalis ATCC 29212; conditions: Enterococcus faecalis
K. pneumoniae ATCC 10031 = assay: MIC against K. pneumoniae ATCC 10031; conditions: Klebsiella pneumoniae, ATCC10031
E. coli ATCC 15922 = assay: MIC against E. coli ATCC 15922; conditions: Escherichia coli, ATCC15922; E. coli ATCC 15922; read-out: MIC
E. coli MP-9 ΔTolC = assay: MIC against E. coli MP-9 ΔTolC; conditions: Escherichia coli
S. aureus BAA 977 iErmA = assay: MIC against S. aureus BAA 977 iErmA; conditions: Staphylococcus aureus, BAA977
[4] = test system: S. aureus MP-513 clinical cErm; assay: MIC against S. aureus MP-513 clinical cErm; conditions: Staphylococcus aureus
P. aeruginosa ATCC 27853 = assay: MIC against P. aeruginosa ATCC 27853; conditions: Pseudomonas aeruginosa, ATCC27853
E. coli ATCC 25922 = assay: MIC against E. coli ATCC 25922; conditions: Escherichia coli, ATCC25922
[5] = test system: E. coli MP-74 LptD mutant; assay: MIC against E. coli MP-74 LptD mutant; conditions: Escherichia coli
S. aureus ATCC 29213 = assay: MIC against S. aureus ATCC 29213; conditions: Staphylococcus aureus
[6] = test system: S. pyogenes MMX 946 Macrolide-Resistant; assay: MIC against S. pyogenes MMX 946 Macrolide-Resistant; conditions: Streptococcus pyogenes
[7] = test system: E. faecalis MMX 847 Macrolide-Resistant; assay: MIC against E. faecalis MMX 847 Macrolide-Resistant; conditions: Enterococcus faecalis
C. difficile BAA 1805 = assay: MIC against C. difficile BAA 1805; conditions: Clostridioides difficile, BAA1805
[8] = test system: E. coli MMX TolC parent strain; assay: MIC against E. coli MMX TolC parent strain; conditions: Escherichia coli
[9] = test system: P. aeruginosa MMX Mex parent strain; assay: MIC against P. aeruginosa MMX Mex parent strain; conditions: Pseudomonas aeruginosa
[10] = test system: P. aeruginosa MMX 3476 Δmex; assay: MIC against P. aeruginosa MMX 3476 Δmex; conditions: Pseudomonas aeruginosa
H. influenzae ATCC 49247 = assay: MIC against H. influenzae ATCC 49247; conditions: Haemophilus influenzae, ATCC49247; H. influenzae ATCC 49247; read-out: MIC
B. fragilis ATCC 25285 = assay: MIC against B. fragilis ATCC 25285; conditions: Bacteroides fragilis, ATCC25285; B. fragilis ATCC 25285; read-out: MIC
E. coli MMX 0121 ΔTolC = assay: MIC against E. coli MMX 0121 ΔTolC; conditions: Escherichia coli
[11] = S. aureus MMX 3035 cErmA, read-out: MIC
[12] = S. pneumoniae MMX 3028 cErmB, read-out: MIC
[13] = S. pyogenes ATCC 19615, read-out: MIC
[14] = K. pneumoniae ATCC 10031, read-out: MIC
[15] = ATCC29213, S. aureus ATCC 29213, read-out: MIC
[16] = C. difficile BAA 1805, read-out: MIC
[17] = E. faecalis MMX 847 MacRes, read-out: MIC

| Structure (SMILES) | MIC [1] | MIC (S. aureus MMX 3035 cErmA; [11]) | MIC (S. pneumoniae ATCC 49619) | MIC [2, 12] | MIC [3] | MIC (S. pyogenes ATCC 19615; [13]) | MIC (K. pneumoniae ATCC 10031; [14]) | MIC (E. coli MP-9 ΔTolC) | MIC (S. aureus BAA 977 iErmA) | MIC [4] | MIC (K. pneumoniae ATCC 10031) | MIC (P. aeruginosa ATCC 27853) | MIC (E. coli ATCC 25922) | other results |
| --- | --- | --- | --- | --- | --- | --- | --- | --- | --- | --- | --- | --- | --- | --- |
| CSC1O[C@H]([C@H](NC(=O)[C@H]2NC[C@@H]3C[C@@H](c4cccc(F)c4)CCO[C@H]32)[C@H](C)Cl)C(O)[C@@H](O)[C@H]1O (some centres unmarked) [FSA-511077] | 0.23 µg/mL (≈ 0.431 µM) | > 64 µg/mL | ≤ 0.06 µg/mL | 8 µg/mL (≈ 15 µM) | ≤ 0.06 µg/mL | ≤ 0.06 µg/mL | 8 µg/mL (≈ 15 µM) | 4 µg/mL (≈ 7.5 µM) | – | – | – | – | – | MIC (E. faecalis ATCC 29212; ATCC29212, read-out: MIC): 0.5 µg/mL (≈ 0.938 µM); MIC (E. coli ATCC 15922): > 64 µg/mL |
| CSC1O[C@H]([C@H](NC(=O)[C@H]2NC[C@@H]3CN(C)CCO[C@H]32)[C@H](C)Cl)C(O)[C@@H](O)[C@H]1O (some centres unmarked) [FSA-503002] | > 64 µg/mL | – | – | – | – | – | – | > 64 µg/mL | > 64 µg/mL | > 64 µg/mL | > 64 µg/mL | > 64 µg/mL | > 64 µg/mL | – |
| CSC1O[C@H]([C@H](NC(=O)[C@H]2NC[C@@H]3CNCCO[C@H]32)[C@H](C)Cl)C(O)[C@@H](O)[C@H]1O (some centres unmarked) [FSA-503001] | > 64 µg/mL | – | – | – | – | – | – | > 64 µg/mL | > 64 µg/mL | > 64 µg/mL | > 64 µg/mL | > 64 µg/mL | > 64 µg/mL | – |
| CSC1O[C@H]([C@H](NC(=O)[C@H]2NC[C@@H]3C[C@@H](c4ccc(F)cc4F)CCO[C@H]32)[C@H](C)Cl)C(O)[C@@H](O)[C@H]1O (some centres unmarked) [FSA-511078] | – | > 64 µg/mL | ≤ 0.06 µg/mL | 4 µg/mL (≈ 7.26 µM) | ≤ 0.06 µg/mL | ≤ 0.06 µg/mL | 8 µg/mL (≈ 14.5 µM) | 2 µg/mL (≈ 3.63 µM) | – | – | – | – | – | MIC (E. coli ATCC 15922): > 64 µg/mL; MIC [5]: 8 µg/mL (≈ 14.5 µM) |
| CCNC(=O)N1CCO[C@@H]2[C@H](CN[C@@H]2C(=O)N[C@H]([C@H](C)Cl)[C@H]2OC(SC)[C@H](O)[C@H](O)C2O)C1 (some centres unmarked) [FSA-503004] | > 64 µg/mL | – | – | – | – | – | – | > 64 µg/mL | > 64 µg/mL | > 64 µg/mL | > 64 µg/mL | > 64 µg/mL | > 64 µg/mL | MIC (S. aureus ATCC 29213; ATCC29213): > 64 µg/mL |
| CSC1O[C@H]([C@H](NC(=O)[C@H]2NC[C@H]3CC=CCO[C@H]32)[C@H](C)Cl)C(O)[C@@H](O)[C@H]1O (some centres unmarked) [FSA-507051] | – | – | 1 µg/mL (≈ 2.29 µM) | – | 1 µg/mL (≈ 2.29 µM) | – | – | – | – | – | – | > 32 µg/mL | > 32 µg/mL | MIC (S. aureus MMX 3035 cErmA): > 32 µg/mL; MIC [2]: > 32 µg/mL; MIC (S. pyogenes ATCC 19615): 0.5 µg/mL (≈ 1.14 µM); MIC [6]: > 32 µg/mL; MIC (E. faecalis ATCC 29212; ATCC29212): > 32 µg/mL; MIC [7]: > 32 µg/mL; MIC (C. difficile BAA 1805): > 32 µg/mL; MIC [8]: > 32 µg/mL; MIC [9]: > 32 µg/mL; MIC [10]: > 32 µg/mL; MIC (H. influenzae ATCC 49247): 6 µg/mL (≈ 13.7 µM) |
| CSC1O[C@H]([C@H](NC(=O)[C@H]2NC[C@@H]3CN(Cc4ccnc(N)c4)CCO[C@H]32)[C@H](C)Cl)C(O)[C@@H](O)[C@H]1O (some centres unmarked) [FSA-504049] | 8 µg/mL (≈ 14.6 µM) | – | – | – | – | – | – | > 64 µg/mL | – | > 64 µg/mL | > 64 µg/mL | > 64 µg/mL | > 64 µg/mL | MIC (S. aureus ATCC 29213; [15]): 14 µg/mL (≈ 25.6 µM) |
| CCCN1CCO[C@@H]2[C@H](CN[C@@H]2C(=O)N[C@H]([C@H](C)Cl)[C@H]2OC(SC)[C@H](O)[C@H](O)C2O)C1 (some centres unmarked) [FSA-503003] | 2 µg/mL (≈ 4.15 µM) | – | – | – | – | – | – | > 64 µg/mL | 4 µg/mL (≈ 8.3 µM) | > 64 µg/mL | > 64 µg/mL | > 64 µg/mL | > 64 µg/mL | MIC (S. aureus ATCC 29213; [15]): 4 µg/mL (≈ 8.3 µM) |
| C=CC1=CCO[C@@H]2[C@H](CN[C@@H]2C(=O)N[C@H]([C@H](C)Cl)[C@H]2OC(SC)[C@H](O)[C@H](O)C2O)C1 (some centres unmarked) [FSA-507041] | – | – | < 0.03 µg/mL | – | < 0.03 µg/mL | 0.06 µg/mL (≈ 0.13 µM) | – | – | 0.5 µg/mL (≈ 1.08 µM) | – | – | > 32 µg/mL | > 32 µg/mL | MIC (S. aureus ATCC 29213; [15]): 0.5 µg/mL (≈ 1.08 µM); MIC (S. aureus MMX 3035 cErmA): > 32 µg/mL; MIC [6]: > 32 µg/mL; MIC (E. faecalis ATCC 29212; ATCC29212, read-out: MIC): 2 µg/mL (≈ 4.32 µM); MIC [7]: > 32 µg/mL; MIC (C. difficile BAA 1805; [16]): 0.5 µg/mL (≈ 1.08 µM); MIC (B. fragilis ATCC 25285): 2 µg/mL (≈ 4.32 µM); MIC [8]: > 32 µg/mL; MIC [9]: > 32 µg/mL; MIC [10]: > 32 µg/mL |
| CSC1O[C@H]([C@H](NC(=O)[C@H]2NC[C@@H]3C[C@@H](c4cc(F)cc(F)c4)CCO[C@H]32)[C@H](C)Cl)C(O)[C@@H](O)[C@H]1O (some centres unmarked) [FSA-511080] | – | > 64 µg/mL | ≤ 0.06 µg/mL | 8 µg/mL (≈ 14.5 µM) | ≤ 0.06 µg/mL | ≤ 0.06 µg/mL | – | 4 µg/mL (≈ 7.26 µM) | – | – | – | – | – | MIC (E. faecalis ATCC 29212; ATCC29212, read-out: MIC): 0.5 µg/mL (≈ 0.907 µM); MIC [7, 17]: > 64 µg/mL; MIC (E. coli ATCC 15922): > 64 µg/mL |
| CSC1O[C@H]([C@H](NC(=O)[C@H]2NC[C@@H]3C[C@H]4C[C@H]4CO[C@H]32)[C@H](C)Cl)C(O)[C@@H](O)[C@H]1O (stereo in doubt) [FSA-507007] | – | > 64 µg/mL | – | – | – | ≤ 0.06 µg/mL | > 64 µg/mL | – | 0.5 µg/mL (≈ 1.11 µM) | – | – | – | – | MIC ([7]; E. faecalis MMX 847 Macrolide-Resistant (MacRes), read-out: MIC): > 64 µg/mL; MIC (C. difficile BAA 1805; [16]): 4 µg/mL (≈ 8.87 µM); MIC ([8]; E. coli MMX TolC parent strain, read-out: MIC): > 64 µg/mL; MIC (E. coli MMX 0121 ΔTolC): 8 µg/mL (≈ 17.7 µM); MIC (P. aeruginosa ATCC 27853; P. aeruginosa ATCC 27853, read-out: MIC): > 64 µg/mL; MIC ([9]; P. aeruginosa MMX Mex parent strain, read-out: MIC): > 64 µg/mL; MIC (H. influenzae ATCC 49247): 2 µg/mL (≈ 4.43 µM); MIC (E. coli ATCC 25922; E. coli ATCC 25922, read-out: MIC): > 64 µg/mL |
| CSC1O[C@H]([C@H](NC(=O)[C@H]2NC[C@@H]3C[C@@H](CCc4cccc(F)c4)CCO[C@H]32)[C@H](C)Cl)C(O)[C@@H](O)[C@H]1O (some centres unmarked) [FSA-510022] | – | 2 µg/mL (≈ 3.56 µM) | ≤ 0.06 µg/mL | 4 µg/mL (≈ 7.13 µM) | ≤ 0.06 µg/mL | ≤ 0.06 µg/mL | 2 µg/mL (≈ 3.56 µM) | 4 µg/mL (≈ 7.13 µM) | – | – | – | – | – | MIC ([6]; S. pyogenes MMX 946 MacRes, read-out: MIC): 0.5 µg/mL (≈ 0.891 µM); MIC [7, 17]: 2 µg/mL (≈ 3.56 µM); MIC [5]: 4 µg/mL (≈ 7.13 µM); MIC (H. influenzae ATCC 49247): 1 µg/mL (≈ 1.78 µM) |
